Values of other authors as cited in patent US20110159092A1 (MICRO LABS LIMITED, priority 2009, published 2011).

How the values were obtained:
bacteria = settings: background statement
enterococci = settings: against enterococci
staphylococci = settings: against staphylococci
streptococci = settings: majority of strains

CC(=O)NC[C@H]1CN(c2ccc(N3CCOCC3)c(F)c2)C(=O)O1 [Linezolid, (S)-N-({3-[3-fluoro-4-(morpholin-4-yl)phenyl]-2-oxo-1,3-oxazolidin-5-yl}methyl)acetamide]
MIC (bacteria): 1 to 4 µg/mL
time-kill result (enterococci): bacteriostatic
time-kill result (staphylococci): bacteriostatic
time-kill result (streptococci): bactericidal
